Laboratory results reported in patent US20260285918A1, “PEPTIDE FOR INHIBITING PROTEIN AGGREGATION AND PROTECTING PROTEIN ACTIVITY” (GWANGJU INSTITUTE OF SCIENCE AND TECHNOLOGY, priority 2023, published 2026).

How the values were obtained:
[1] = test system: LDH (Lactate dehydrogenase); test: LDH activity protection after dehydration-rehydration and freeze-thaw; format: biochemical; conditions: for LDH activity protection rate: motif added at up to 1/10 of the BSA amount
From the text: Specifically, as illustrated in FIG. 6(c), considering the charge, hydrophobicity, and hydrophilicity of each amino acid in the CAHS motif 1 124-142 sequence, Y (Tyr), Q (Gln), E (Glu), V (Val), R (Arg), and L (Leu) in the amino acid sequence of CAHS motif 1, represented by SEQ ID NO: 2, were each mutated to alanine at one site.

[2] = test system: LDH (Lactate dehydrogenase); test: Inhibition of LDH aggregation (absorption at 340 nm, light scattering) after dehydration-rehydration and freeze-thaw
From the text: In other words, protein aggregation is the main cause of loss of protein activity. Protein aggregation is induced during the process of freezing and thawing (freeze and thaw) or in a water-free environment (dehydration), which causes loss of protein activity.

[3] = Solubility comparison after dialysis; format: physicochemical; conditions: 100 μM, dialysed at 4° C. for 18 hours in 20 mM potassium phosphate, 150 mM NaCl, pH 7.0
Procedure: First, CAHS motif 1 124-142 was obtained via peptide synthesis. CAHS motif 1 124-142 and the entire CAHS protein 1-229 were each dialysed at 4° C. for 18 hours in a buffer containing 20 mM potassium phosphate, 150 mM NaCl, pH 7.0, at a concentration of 100 μM, to compare their solubility.

[4] = test system: LDH (Lactate dehydrogenase); test: LDH activity protection with temperature and time (storage); format: biochemical; conditions: mass ratio 1:50
Procedure: CAHS motif 1 124-142, a stabilizer provided by the present invention, was mixed with LDH (lactate dehydrogenase), a target protein candidate for activity protection experiments, at a mass ratio of 1:50. The LDH protein activity was tested under various temperature and time conditions to determine the degree of protein activity protection.
Specifically, LDH protein activity was tested at temperatures of −20° C., 20° C., and 37° C., and at time intervals of 0, 1, 2, and 4 weeks.

| LDH activity preservation on storage ([4]; 20° C., 1 to 4 weeks) | LDH activity preservation on storage ([4]; 37° C., 1 to 4 weeks) | LDH activity preservation on storage ([4]; −20° C., 1 to 4 weeks) | Substance | LDH activity protection rate [1] | LDH aggregation ([2]; dehydration-rehydration) | LDH activity protection compared between excipients [1] | solubility [3] | LDH activity preservation on storage ([4]; all conditions: −20° C., 20° C., 37° C., 0, 1, 2, 4 weeks) | LDH aggregation ([2]; freeze-thaw) |
| --- | --- | --- | --- | --- | --- | --- | --- | --- | --- |
|  |  |  | Bovine Serum Albumin [BSA, reference compound] | 50-60% | barely prevented aggregation |  |  |  |  |
| well preserved | well preserved | well preserved | CAHS motif 1 124-142: 19-mer peptide, positions 124 to 142 of the CAHS protein, YRKQQEVEADKIRKELEKQ, obtained via peptide synthesis | 70-100% | reduced aggregation by more than half | best protected the activity of the protein | excellent solubility in water | effectively preserve protein activity under all temperature and time conditions | effectively inhibits the aggregation of LDH |
